Each block holds one compound with its values, some of them ahead of it. The source made the active and inactive calls.
What was measured:
HEK293 [1] = assay: EBV LMP1 TES2 canonical NF-kB signalling blockers – cell-based, HEK293, luciferase, cherry-pick, dose response (AID 588343); assay type: functional; conditions: Homo sapiens
[2] = target: T1, Heat shock factor protein 1 (Mus musculus, UniProt P38532); assay: decrease of HSF1-responsive luciferase luminescence – cell-based, NIH3T3, dose retest, confirmation (AID 2382); assay type: functional;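 further: NIH3T3 fibroblasts with HSF1-driven luciferase reporter stressed by proteasome inhibitor MG132; luminescence from HSF1-driven luciferase expression after 8 hours of MG132 stress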
T1 sequence (P38532 whole entry): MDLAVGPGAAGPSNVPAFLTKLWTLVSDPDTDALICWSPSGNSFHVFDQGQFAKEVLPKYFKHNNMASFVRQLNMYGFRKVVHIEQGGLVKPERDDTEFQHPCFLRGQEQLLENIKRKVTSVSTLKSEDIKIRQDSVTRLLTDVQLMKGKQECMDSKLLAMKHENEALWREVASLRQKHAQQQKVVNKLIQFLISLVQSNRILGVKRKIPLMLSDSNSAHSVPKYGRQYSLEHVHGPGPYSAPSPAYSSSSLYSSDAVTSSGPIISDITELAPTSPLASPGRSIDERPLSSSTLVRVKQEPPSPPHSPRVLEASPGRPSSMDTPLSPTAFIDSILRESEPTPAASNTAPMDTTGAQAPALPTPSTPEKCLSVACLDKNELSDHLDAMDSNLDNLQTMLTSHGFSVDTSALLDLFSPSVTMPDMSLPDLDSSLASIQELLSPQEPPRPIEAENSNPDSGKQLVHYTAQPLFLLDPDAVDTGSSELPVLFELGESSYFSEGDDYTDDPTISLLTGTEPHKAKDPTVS

X-box-binding protein 1 = target: T2, X-box-binding protein 1 (Homo sapiens, UniProt P17861); assay type: functional, Cricetulus griseus;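 further: confirmatory dose-response counter-screen serving a CHOP assay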
T2 sequence (P17861 whole entry): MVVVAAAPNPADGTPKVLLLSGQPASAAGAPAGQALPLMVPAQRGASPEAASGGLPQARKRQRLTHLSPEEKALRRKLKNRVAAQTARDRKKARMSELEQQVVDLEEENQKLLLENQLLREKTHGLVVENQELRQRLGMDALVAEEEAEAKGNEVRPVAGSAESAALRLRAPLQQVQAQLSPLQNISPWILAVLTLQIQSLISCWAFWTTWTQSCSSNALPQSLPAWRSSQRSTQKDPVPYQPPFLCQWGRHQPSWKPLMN

[3] = target: G-protein coupled receptor 55 (Homo sapiens, UniProt Q9Y2T6); assay: selective activators of receptor GPR55 – imaging, U2OS cells, beta-arrestin-GFP redistribution, primary screen (AID 1961); assay type: functional
Chain of G-protein coupled receptor 55 (Q9Y2T6 whole entry): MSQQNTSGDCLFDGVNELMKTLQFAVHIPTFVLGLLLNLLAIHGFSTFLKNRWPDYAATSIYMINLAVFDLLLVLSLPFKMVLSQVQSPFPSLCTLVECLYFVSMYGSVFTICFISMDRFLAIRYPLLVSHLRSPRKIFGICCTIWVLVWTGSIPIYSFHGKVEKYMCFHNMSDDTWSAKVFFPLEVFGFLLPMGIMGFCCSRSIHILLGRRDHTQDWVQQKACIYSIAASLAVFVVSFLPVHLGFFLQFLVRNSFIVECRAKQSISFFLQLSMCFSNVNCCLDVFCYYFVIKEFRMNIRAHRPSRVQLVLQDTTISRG

[4] = IC50 of Artemis nuclease activity blockers – biochemical, fluorescence intensity, dose response (AID 720701); assay type: functional;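 further: Artemis endonuclease enzyme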
Estrogen receptor = target: T3, Estrogen receptor (Homo sapiens, UniProt P03372);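 further: potency for inhibiting coactivator peptide recruitment to the receptor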
T3 sequence (P03372 whole entry): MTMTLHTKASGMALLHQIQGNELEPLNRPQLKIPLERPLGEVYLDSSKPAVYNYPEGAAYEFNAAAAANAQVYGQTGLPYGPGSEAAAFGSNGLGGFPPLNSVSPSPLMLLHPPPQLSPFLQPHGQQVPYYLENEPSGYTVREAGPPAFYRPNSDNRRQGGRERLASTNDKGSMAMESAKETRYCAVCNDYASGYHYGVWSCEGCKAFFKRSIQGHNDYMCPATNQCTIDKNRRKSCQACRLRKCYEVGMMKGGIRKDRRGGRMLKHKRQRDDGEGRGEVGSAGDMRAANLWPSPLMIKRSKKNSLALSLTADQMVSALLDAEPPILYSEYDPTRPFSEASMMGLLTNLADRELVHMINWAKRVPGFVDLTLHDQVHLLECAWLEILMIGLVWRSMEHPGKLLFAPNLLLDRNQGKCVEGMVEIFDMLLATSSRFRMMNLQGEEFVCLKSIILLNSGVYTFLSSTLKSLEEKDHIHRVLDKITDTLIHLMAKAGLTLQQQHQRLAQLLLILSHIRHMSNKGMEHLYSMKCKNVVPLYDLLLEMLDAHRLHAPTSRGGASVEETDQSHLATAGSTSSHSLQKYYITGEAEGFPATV

[5] = target: Protein-tyrosine kinase 2-beta (Homo sapiens, UniProt Q14289);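 further: potency of inhibitors of PYK2 kinase phosphorylation of poly-GT substrate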
Chain of Protein-tyrosine kinase 2-beta (Q14289 whole entry): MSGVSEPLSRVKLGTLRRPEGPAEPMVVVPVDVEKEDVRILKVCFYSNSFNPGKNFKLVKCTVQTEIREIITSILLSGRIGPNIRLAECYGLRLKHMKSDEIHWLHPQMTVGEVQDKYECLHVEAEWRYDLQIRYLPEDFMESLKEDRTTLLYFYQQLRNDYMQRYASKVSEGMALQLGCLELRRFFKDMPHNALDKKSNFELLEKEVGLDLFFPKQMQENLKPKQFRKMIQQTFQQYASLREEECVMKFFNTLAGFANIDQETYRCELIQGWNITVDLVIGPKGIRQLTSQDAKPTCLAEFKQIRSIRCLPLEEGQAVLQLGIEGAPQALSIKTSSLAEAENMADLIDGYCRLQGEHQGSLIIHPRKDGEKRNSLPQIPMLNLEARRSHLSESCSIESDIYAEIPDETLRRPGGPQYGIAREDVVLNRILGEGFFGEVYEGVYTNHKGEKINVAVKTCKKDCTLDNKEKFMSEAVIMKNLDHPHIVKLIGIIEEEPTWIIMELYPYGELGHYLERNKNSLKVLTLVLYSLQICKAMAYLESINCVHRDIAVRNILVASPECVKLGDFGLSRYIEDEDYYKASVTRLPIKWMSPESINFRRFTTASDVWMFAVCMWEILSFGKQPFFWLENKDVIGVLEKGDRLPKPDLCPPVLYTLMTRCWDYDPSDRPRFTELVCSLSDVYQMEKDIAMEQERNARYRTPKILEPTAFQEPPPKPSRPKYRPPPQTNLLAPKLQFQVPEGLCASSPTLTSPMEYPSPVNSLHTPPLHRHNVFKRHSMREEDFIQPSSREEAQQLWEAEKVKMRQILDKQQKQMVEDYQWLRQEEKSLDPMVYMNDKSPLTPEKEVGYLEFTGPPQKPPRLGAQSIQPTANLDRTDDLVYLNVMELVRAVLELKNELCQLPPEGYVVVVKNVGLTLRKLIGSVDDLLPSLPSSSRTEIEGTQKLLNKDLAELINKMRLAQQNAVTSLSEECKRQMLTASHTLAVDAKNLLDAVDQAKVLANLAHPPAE

Bcl-2-like protein 10 = target: T4, Bcl-2-like protein 10 (Homo sapiens, UniProt Q9HD36); assay: Bcl-B/TR3 peptide binding disruption – biochemical, fluorescence polarization, FITC-TR3 peptide, selectivity assay for Bfl-1 inhibitor project, primary screen (AID 748);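 further: fluorescence polarization from a fluorescein-labelled TR3 peptide binding purified Bcl-B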
T4 sequence (Q9HD36 whole entry): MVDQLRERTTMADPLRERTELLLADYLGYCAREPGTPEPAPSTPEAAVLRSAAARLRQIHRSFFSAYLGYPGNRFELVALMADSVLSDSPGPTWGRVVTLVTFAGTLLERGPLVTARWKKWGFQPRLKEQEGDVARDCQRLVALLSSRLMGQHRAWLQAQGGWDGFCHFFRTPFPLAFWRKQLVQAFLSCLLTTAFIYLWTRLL

Estrogen receptor beta [6] = target: T5, Estrogen receptor beta (Homo sapiens, UniProt Q92731);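 further: recombinant ER-beta bound to coactivator SRC1 peptide in presence of estradiol agonist; inhibitors block coactivator peptide binding and lower the FRET signal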
T5 sequence (Q92731 whole entry): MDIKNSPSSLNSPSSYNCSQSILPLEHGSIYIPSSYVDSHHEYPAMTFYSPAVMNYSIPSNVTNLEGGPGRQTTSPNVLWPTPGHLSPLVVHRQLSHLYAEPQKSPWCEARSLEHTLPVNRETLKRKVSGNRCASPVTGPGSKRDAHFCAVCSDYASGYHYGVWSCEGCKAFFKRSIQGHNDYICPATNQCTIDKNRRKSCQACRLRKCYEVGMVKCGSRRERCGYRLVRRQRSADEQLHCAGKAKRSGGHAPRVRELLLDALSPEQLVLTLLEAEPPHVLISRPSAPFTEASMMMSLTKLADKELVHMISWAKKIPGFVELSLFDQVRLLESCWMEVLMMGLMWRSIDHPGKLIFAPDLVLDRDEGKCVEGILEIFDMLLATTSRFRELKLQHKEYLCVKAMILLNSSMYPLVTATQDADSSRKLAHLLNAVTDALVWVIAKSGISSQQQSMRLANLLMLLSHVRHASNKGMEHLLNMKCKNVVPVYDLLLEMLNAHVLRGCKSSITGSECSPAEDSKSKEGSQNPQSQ

Estrogen receptor beta [7] = target: T5, Estrogen receptor beta; assay: blockers of SRC-3 recruitment to ERβ – biochemical, ELISA, streptavidin-HRP readout, orthogonal assay, confirmation (AID 1060)
[8] = target: Nucleotide-binding oligomerization domain-containing protein 2 (Homo sapiens, UniProt Q9HC29); assay: PubChem AID 2334; assay type: functional
Chain of Nucleotide-binding oligomerization domain-containing protein 2 (Q9HC29 whole entry, the tested form may be a part): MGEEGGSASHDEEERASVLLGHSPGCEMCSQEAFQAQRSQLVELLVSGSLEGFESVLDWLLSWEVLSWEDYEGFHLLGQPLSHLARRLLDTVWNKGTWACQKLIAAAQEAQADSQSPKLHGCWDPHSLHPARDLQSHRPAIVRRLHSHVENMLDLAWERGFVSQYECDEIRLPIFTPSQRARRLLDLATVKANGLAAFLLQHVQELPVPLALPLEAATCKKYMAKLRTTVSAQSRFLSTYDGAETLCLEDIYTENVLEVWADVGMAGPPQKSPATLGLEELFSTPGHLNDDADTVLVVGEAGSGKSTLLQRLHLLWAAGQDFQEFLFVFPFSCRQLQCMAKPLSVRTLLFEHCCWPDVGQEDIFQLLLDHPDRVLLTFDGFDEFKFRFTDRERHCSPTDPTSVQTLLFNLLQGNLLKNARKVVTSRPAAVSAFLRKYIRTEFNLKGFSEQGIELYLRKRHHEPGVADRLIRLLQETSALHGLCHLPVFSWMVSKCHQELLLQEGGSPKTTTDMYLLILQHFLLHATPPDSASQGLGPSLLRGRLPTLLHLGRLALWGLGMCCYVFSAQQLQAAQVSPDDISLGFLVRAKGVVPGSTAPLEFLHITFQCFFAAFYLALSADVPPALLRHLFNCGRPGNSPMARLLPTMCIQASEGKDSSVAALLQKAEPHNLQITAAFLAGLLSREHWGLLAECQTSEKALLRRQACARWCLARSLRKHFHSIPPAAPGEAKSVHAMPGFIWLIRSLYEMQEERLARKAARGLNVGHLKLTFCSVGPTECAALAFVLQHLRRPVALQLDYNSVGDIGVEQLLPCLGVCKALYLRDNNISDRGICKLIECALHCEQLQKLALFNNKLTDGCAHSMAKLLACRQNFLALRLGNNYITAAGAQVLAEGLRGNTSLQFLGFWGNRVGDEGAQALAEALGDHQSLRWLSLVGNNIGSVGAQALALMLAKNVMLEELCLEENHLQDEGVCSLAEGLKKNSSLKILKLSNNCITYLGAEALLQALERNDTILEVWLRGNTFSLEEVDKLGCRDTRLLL

[9] = target: T6, Nucleotide-binding oligomerization domain-containing protein 1 (Homo sapiens, UniProt Q9Y239); assay: blockers of NOD1 pathway activity – revised, SAR follow-up (AID 2333); assay type: functional
T6 sequence (Q9Y239 whole entry): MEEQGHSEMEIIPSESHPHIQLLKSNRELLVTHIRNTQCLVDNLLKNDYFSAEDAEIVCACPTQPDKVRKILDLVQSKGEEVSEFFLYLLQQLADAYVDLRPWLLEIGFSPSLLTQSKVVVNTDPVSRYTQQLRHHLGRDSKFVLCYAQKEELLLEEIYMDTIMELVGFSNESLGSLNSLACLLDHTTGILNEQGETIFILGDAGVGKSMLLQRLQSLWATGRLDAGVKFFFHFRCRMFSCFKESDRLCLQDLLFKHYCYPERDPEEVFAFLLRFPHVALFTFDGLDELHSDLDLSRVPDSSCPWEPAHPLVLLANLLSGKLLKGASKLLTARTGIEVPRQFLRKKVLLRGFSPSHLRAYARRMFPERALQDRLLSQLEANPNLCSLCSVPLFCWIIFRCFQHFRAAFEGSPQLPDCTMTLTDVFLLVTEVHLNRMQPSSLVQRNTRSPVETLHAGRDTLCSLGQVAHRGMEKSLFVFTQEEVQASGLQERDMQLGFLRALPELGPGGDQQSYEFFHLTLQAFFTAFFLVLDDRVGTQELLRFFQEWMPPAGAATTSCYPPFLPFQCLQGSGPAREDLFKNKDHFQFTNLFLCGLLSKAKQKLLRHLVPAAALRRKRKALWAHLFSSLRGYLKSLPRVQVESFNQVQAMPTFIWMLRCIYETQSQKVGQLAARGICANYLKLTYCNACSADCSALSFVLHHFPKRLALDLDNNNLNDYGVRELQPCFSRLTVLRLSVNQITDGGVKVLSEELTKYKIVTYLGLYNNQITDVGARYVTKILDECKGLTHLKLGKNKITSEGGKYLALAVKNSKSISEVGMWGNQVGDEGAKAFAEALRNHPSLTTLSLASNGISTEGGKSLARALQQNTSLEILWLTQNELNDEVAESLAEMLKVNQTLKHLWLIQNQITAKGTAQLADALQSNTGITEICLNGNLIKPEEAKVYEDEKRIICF

Tumor necrosis factor = Tumor necrosis factor (Homo sapiens, UniProt P01375); assay: analog potency on TNFa NF-kB signaling – cell-based, revised, SAR follow-up (AID 2337); assay type: functional
Chain of Tumor necrosis factor (P01375 whole entry): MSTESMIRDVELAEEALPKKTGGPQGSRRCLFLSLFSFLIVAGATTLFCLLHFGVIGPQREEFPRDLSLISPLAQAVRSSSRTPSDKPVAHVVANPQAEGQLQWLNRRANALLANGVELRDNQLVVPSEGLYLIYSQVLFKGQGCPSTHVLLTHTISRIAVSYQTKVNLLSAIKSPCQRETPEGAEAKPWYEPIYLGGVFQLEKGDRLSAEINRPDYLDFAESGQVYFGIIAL

HEK293 [10] = assay: cells; conditions: Homo sapiens

SMILES: COc1ccc(CCNC(=O)c2nnn(-c3ccc4c(c3)OCCO4)c2N)cc1OC
AC50 (HEK293 [1]): 0.786 µM (active)
EC50 [2]: 0.44 µM (active)
Absolute IC50 (XBP1) (X-box-binding protein 1): 10 µM

SMILES: O=C(Nc1ccc(N2CCCC2)cc1)C(c1ccccc1)c1ccccc1
IC50 [4]: > 20 µM (inactive)
IC50 (Estrogen receptor): 7.09 µM (active)
IC50 [5]: 11.6 µM (not active)
IC50 (Bcl-2-like protein 10): 18.9 µM (active)

SMILES: O=C(COC(=O)CN1C(=O)c2ccccc2C1=O)Nc1ncc(Cl)cc1Cl
IC50 (Estrogen receptor beta [6]): 11.1 µM (active)
IC50 (Estrogen receptor beta [7]): < 77 µM (not active)
IC50 (Bcl-2-like protein 10): 41.5 µM (active)

SMILES: Cc1ccccc1C(=O)Nc1nc2ccccc2n1Cc1ccc(Cl)cc1
IC50 [8]: > 20 µM (inactive)
IC50 [9]: > 20 µM (inactive)
IC50 (Tumor necrosis factor): > 20 µM (inactive)
IC50 (HEK293 [10]): > 20 µM (inactive)

SMILES: O=C(Nc1ccc(Cl)c(Cl)c1)c1ccc(CN2CCc3ccccc3C2)cc1
IC50 [8]: > 20 µM (inactive)
IC50 [9]: 0.891 µM (active)
IC50 (Tumor necrosis factor): > 20 µM (inactive)
IC50 (HEK293 [10]): 8.89 µM (active)

SMILES: Cc1ccc(/C=N/NC(=O)CSCc2ccc(Cl)cc2)cc1
Absolute IC50 (XBP1) (X-box-binding protein 1): 10 µM

Other lines, results leading:

EC50 [3]: 7.35 µM (active)
SMILES: CC(=O)OC(c1nc2ccccc2c(=O)n1C1CC2(OC1=O)c1ccccc1N1C(=O)C(C)(C)N(O)C12)C(C)C (configuration not stated)

EC50 [3]: 5.59 µM (active)
SMILES: CN1/C(=C\C(=O)COC(=O)c2ccco2)C(C)(C)c2ccccc21

IC50 (Bcl-2-like protein 10): > 25 µM (inactive)
SMILES: Cc1cccn2c(=O)c3cc(C(=O)NCC4CCCO4)c(=N)n(Cc4cccnc4)c3nc12 (configuration not stated)

Reference: ChEMBL document CHEMBL1201862, “PubChem BioAssay data set” (2004)
